≈ marks a conversion by molar mass, not a printed value.
Columns and labels:
[1] = Inhibition of bacterial Beta-lactamase KPC-2 (29 - 289) (unknown origin) expressed in Escherichia coli Transetta (DE3); parameters: species or system Bacteria
[2] = biological target: Beta-lactamase TEM (Bacteria, UniProt P62593); assay: Inhibition of bacterial Beta-lactamase TEM-1 (24 - 286) (unknown origin) expressed in Escherichia coli Transetta (DE3)
[3] = Inhibition of bacterial Beta-lactamase SFH-1 (3 - 234) expressed in Escherichia coli Transetta (DE3); parameters: species or system Bacteria
[4] = Inhibition of bacterial New Delhi metallo-beta-lactamase 1 (1- 270) (unknown origin) expressed in Escherichia coli Transetta (DE3); parameters: species or system Bacteria
[5] = Inhibition of bacterial Beta-lactamase AmpC (20 - 377) (unknown origin) expressed in Escherichia coli Transetta (DE3); parameters: species or system Bacteria
[6] = Inhibition of bacterial Beta-lactamase VIM-1 (27 - 266) (unknown origin) expressed in Escherichia coli Transetta (DE3); parameters: species or system Bacteria
[7] = Inhibition of bacterial Beta-lactamase OXA-48 (1 - 265) (unknown origin) expressed in Escherichia coli Transetta (DE3); parameters: species or system Bacteria
[8] = system: Escherichia coli; assay: Antibacterial activity against KPC-2 producing Escherichia coli 11119; assay type: functional
[9] = system: Escherichia coli; assay: Antibacterial activity against Escherichia coli ATCC 25922; assay type: functional
[10] = system: Klebsiella pneumoniae; assay: Antibacterial activity against AmpC/TEM-1 producing Klebsiella pneumoniae C692; assay type: functional
[11] = system: Escherichia coli; assay: Antibacterial activity against KPC-2 producing Escherichia coli BAA2340; assay type: functional
[12] = biological target: Beta-lactamase (Klebsiella pneumoniae, UniProt Q93LQ9); assay: Inhibition of Klebsiella pneumoniae KPC-2
Chain of Beta-lactamase (Q93LQ9 whole entry): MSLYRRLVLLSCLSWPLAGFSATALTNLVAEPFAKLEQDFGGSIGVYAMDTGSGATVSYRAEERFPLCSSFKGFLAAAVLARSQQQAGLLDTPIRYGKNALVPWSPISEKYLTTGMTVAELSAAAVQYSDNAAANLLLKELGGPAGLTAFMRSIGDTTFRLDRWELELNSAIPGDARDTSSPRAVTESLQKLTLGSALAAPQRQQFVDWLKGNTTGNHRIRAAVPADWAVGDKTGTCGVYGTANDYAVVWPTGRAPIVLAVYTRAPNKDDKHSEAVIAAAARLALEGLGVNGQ

[13] = system: Escherichia coli; assay: Potentiation of meropenem-induced antibacterial activity against KPC-2 producing Escherichia coli BAA2340 assessed as MIC of meropenem at 10 uM; assay type: functional
[14] = system: Escherichia coli; assay: Potentiation of meropenem-induced antibacterial activity against KPC-2 producing Escherichia coli 11119 assessed as MIC of meropenem at 100 uM; assay type: functional
[15] = system: Escherichia coli; assay: Potentiation of meropenem-induced antibacterial activity against KPC-2 producing Escherichia coli BAA2340 assessed as MIC of meropenem at 100 uM; assay type: functional
[16] = system: Escherichia coli; assay: Potentiation of meropenem-induced antibacterial activity against KPC-2 producing Escherichia coli 11119 assessed as MIC of meropenem at 10 uM; assay type: functional
[17] = system: Klebsiella pneumoniae; assay: Potentiation of meropenem-induced antibacterial activity against AmpC/TEM-1 producing Klebsiella pneumoniae C692 assessed as MIC of meropenem at 100 uM; assay type: functional
[18] = system: HEK-293T; assay: Cytotoxicity against human HEK293T cells assessed as reduction in cell viability at 10 to 100 uM; assay type: cell-based; settings: dose 10-100 µM
[19] = system: Klebsiella pneumoniae; assay: Potentiation of meropenem-induced antibacterial activity against AmpC/TEM-1 producing Klebsiella pneumoniae C692 assessed as MIC of meropenem at 10 uM; assay type: functional

Chain of Beta-lactamase TEM (P62593 whole entry): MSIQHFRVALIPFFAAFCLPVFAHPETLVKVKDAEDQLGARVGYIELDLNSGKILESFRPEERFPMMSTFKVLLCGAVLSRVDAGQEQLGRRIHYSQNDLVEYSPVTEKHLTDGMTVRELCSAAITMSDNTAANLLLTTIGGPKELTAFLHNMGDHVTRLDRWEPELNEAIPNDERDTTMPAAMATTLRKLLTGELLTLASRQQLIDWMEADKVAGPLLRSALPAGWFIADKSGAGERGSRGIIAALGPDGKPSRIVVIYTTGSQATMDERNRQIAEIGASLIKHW

Compound | IC50 [1] [µM] | IC50 [2] [µM] | IC50 [3] [µM] | IC50 [4] [µM] | IC50 [5] [µM] | IC50 [6] [µM] | IC50 [7] [µM] | MIC [8] [µg/mL] | MIC [9] [µg/mL] | MIC [10] [µg/mL] | MIC [11] [µg/mL] | IC50 [12] [µM] | MIC [13] [µg/mL] | MIC [14] [µg/mL] | MIC [15] [µg/mL] | MIC [16] [µg/mL] | MIC [17] [µg/mL] | Activity [18] | MIC [19] [µg/mL]
CNc1ccc(C2OB(O)c3ccccc32)cc1 (stereo unspecified) | 0.1 | 3.2 | 3.02 | 57.4 | 13.9 | 26.4 | 2.37 | – | – | – | – | – | – | – | – | – | – | – | –
OB1OC(c2c[nH]c3ccccc23)c2ccccc21 (stereo unspecified) | 2.58 | > 100 | 8.5 | 6.04 | 3.66 | 15.2 | > 100 | – | – | – | – | – | – | – | – | – | – | – | –
OB1OC(c2ccccc2)c2ccccc21 (stereo unspecified) | 1 | 4.46 | 3.56 | 89 | 29.2 | 73.8 | 8.67 | – | – | – | – | – | – | – | – | – | – | – | –
COc1ccc2c(c1)C(c1ccc(N(C)C)cc1)OB2O (stereo unspecified) | 0.18 | 1.54 | 4.23 | 38.4 | 11.4 | > 100 | 2.93 | – | – | – | – | – | – | – | – | – | – | – | –
C[C@@H](O)[C@H]1C(=O)N2C(C(=O)O)=C(S[C@@H]3CN[C@H](C(=O)N(C)C)C3)[C@H](C)[C@H]12 [MEROPENEM] | – | – | – | – | – | – | – | 64 (≈ 167 µM) | 0.06 (≈ 0.156 µM) | > 128 | 16 (≈ 41.7 µM) | – | – | – | – | – | – | – | –
OB1OC(c2c[nH]c3ccccc23)c2c(F)cccc21 (stereo unspecified) | 6.56 | > 100 | 2.17 | 25.4 | 10.8 | 89.7 | > 100 | – | – | – | – | – | – | – | – | – | – | – | –
CN(C)c1ccc(C2OB(O)c3cc4c(cc32)OCO4)cc1 (stereo unspecified) | 0.76 | 1.15 | 2.77 | 16.6 | 5.23 | 51 | 6.4 | – | – | – | – | – | – | – | – | – | – | – | –
OB1OC(c2c[nH]c3ccc(OCc4ccccc4)cc23)c2ccccc21 (stereo unspecified) | > 100 | > 100 | > 100 | > 100 | > 100 | > 100 | > 100 | – | – | – | – | – | – | – | – | – | – | – | –
CN(C)c1ccc(C2OB(O)c3cccc(F)c32)cc1 (stereo unspecified) | 1.91 | 20.7 | 1.83 | 25.6 | 15.1 | > 100 | 7.48 | – | – | – | – | – | – | – | – | – | – | – | –
OB1OC(c2c[nH]c3ccc(Br)cc23)c2ccccc21 (stereo unspecified) | 9.43 | > 100 | 14.9 | 24 | 25.9 | 13.1 | > 100 | – | – | – | – | – | – | – | – | – | – | – | –
OB1OC(c2cn(Cc3ccccc3)c3ccccc23)c2ccccc21 (stereo unspecified) | > 100 | > 100 | 9.6 | 15.9 | > 100 | 10.6 | > 100 | – | – | – | – | – | – | – | – | – | – | – | –
N#Cc1ccc(Oc2ccc3c(c2)COB3O)cc1 [CRISABOROLE] | – | – | – | – | – | – | – | – | – | – | – | 0.67 | – | – | – | – | – | – | –
OB1OC(c2ccc(N3CCCCC3)cc2)c2ccccc21 (stereo unspecified) | 0.51 | 33 | 5.27 | 11.7 | 32.2 | 18.4 | 3.44 | – | – | – | – | – | – | – | – | – | – | – | –
CN(C)c1ccc(C2OB(O)c3ccc(F)cc32)cc1 (stereo unspecified) | 0.35 | 5.68 | 3.64 | 11.2 | 39.3 | > 100 | 3.58 | – | – | – | – | – | – | – | – | – | – | – | –
OB1OC(c2c[nH]c3ccc(F)cc23)c2ccccc21 (stereo unspecified) | 0.36 | 88.8 | 6.58 | > 100 | 7.27 | 62.5 | > 100 | – | – | – | – | – | – | – | – | – | – | – | –
CN(C)c1ccc(C2OB(O)c3ccc(Cl)cc32)cc1 (stereo unspecified) | 0.086 | 1.54 | 3.81 | 9.05 | 22.7 | > 100 | 2.34 | – | – | – | – | – | 2 | 8 | 0.5 | 32 | > 128 | Non-Toxic | > 128
OB1OC(c2cccs2)c2ccccc21 (stereo unspecified) | 0.41 | 6.97 | 2.47 | 22.4 | 18.7 | 17.4 | 5.45 | – | – | – | – | – | 2 | 2 | 0.5 | 32 | > 128 | Non-Toxic | > 128
CNc1ccc(C2OB(O)c3cccc(F)c32)cc1 (stereo unspecified) | 2.41 | 37.9 | 1.15 | 51.4 | 15.3 | > 100 | 6.49 | – | – | – | – | – | – | – | – | – | – | – | –
OB1OC(c2c[nH]c3ccc(Cl)cc23)c2ccccc21 (stereo unspecified) | 0.2 | > 100 | 18.6 | > 100 | 5.66 | – | > 100 | – | – | – | – | – | – | – | – | – | – | – | –
Cc1ccc2[nH]cc(C3OB(O)c4ccccc43)c2c1 (stereo unspecified) | 0.22 | > 100 | 19.4 | 68 | 8.52 | 16.2 | > 100 | – | – | – | – | – | – | – | – | – | – | – | –
OB1OC(c2c[nH]c3ccc(Br)cc23)c2ccc(F)cc21 (stereo unspecified) | > 100 | > 100 | > 100 | > 100 | > 100 | > 100 | > 100 | – | – | – | – | – | – | – | – | – | – | – | –
CN(C)c1ccc(C2OB(O)c3cc(Cl)ccc32)cc1 (stereo unspecified) | 0.81 | 4.34 | 0.47 | 61.7 | 3.6 | > 100 | 1.96 | – | – | – | – | – | – | – | – | – | – | – | –
NC(=O)[C@@H]1CC[C@@H]2CN1C(=O)N2OS(=O)(=O)O [AVIBACTAM] | 0.0037 | – | 0.025 | > 100 | 0.024 | > 100 | 0.17 | – | – | – | – | – | – | – | – | – | – | – | –
CN(C)c1ccc(C2OB(O)c3ccccc32)cc1 (stereo unspecified) | 0.18 | 0.73 | 2.52 | 8.44 | 8.27 | 39.4 | 2.41 | – | – | – | – | – | – | – | – | – | – | – | –

From ChEMBL document CHEMBL4813997, “Discovery of 3-aryl substituted benzoxaboroles as broad-spectrum inhibitors of serine- and metallo-β-lactamases” (Bioorg Med Chem Lett, 2021)
